Test results reported in patent US9359298B2, “Cajanine structure analogous compound, preparation method and use” (INSTITUTE OF MEDICINAL BIOTECHNOLOGY, CHINESE ACADEMY OF …, priority 2011, dated 2016).
Values after ≈ are worked out from the molar mass of the structure shown. Read-outs that look alike come from different tables or passages of the source.

What was measured:
Assay type in all cases: cell-based
PC12 cells [1] = assay: Neuroprotective activity assay, rotenone injury to PC12 cells (MTT); conditions: for viability at 10 µM: Rattus norvegicus, PC-12, 48 h, read-out: rotenone (surviving PC12 cells, MTT 570 nm); for protective effect on rotenone injury to PC12 cells: statement in words
Experimental: (§1) Discard the original culture media from confluent monolayers of PC12 cells (simulated neuronal cells), add DMEM complete medium with 5% FBS, 5% horse serum gently beat upon the cells with a pipette to completely disperse them, inoculate 100 μl cell suspension at a density of […] per well to 96 hole plates treated with poly-lysine (0.1 mg/ml) in advance, culture for 24h. Divide the experimenting cells into control group, model group and dosing groups. Add complete medium to the control group. Model groups includes rotenone group and serum-deprived group, add rotenone to the corresponding modules with a final concentration of 4 μM rotenone to take effect on the cells for 48 h, add serum-deprived groups with serum-free DMEM medium to take effect on the cells for 48 h. Dosing groups also includes two groups, one using rotenone module as model, another using serum-deprived module as model, and both add in 10 μM test compounds during modeling. 48h later, add 10 μl 5 mg/ml MTT, subsequently discard the supernatant 4h later and add in 150 μl DMSO, measure 570 nm absorbance to represent the numbers of surviving cells.

Coxsackie virus B6 = assay: Coxsackie virus activity assay (CPE in Vero cells); conditions: for IC50: Vero, read-out: COX-B6 IC50, Vero cells, about 100TCID50, CPE, Reed-Muench
HIV-1 III B virus = assay: Anti-HIV activity assay (P24 antigen in MT-4 cells); conditions: for IC50: Human immunodeficiency virus 1, MT4, 96 h, read-out: HIV IC50; for anti-HIV viral activity: statement in words
HCV = assay: Anti-hepatitis C virus (HCV) activity assay (HCV RNA in Huh7.5 cells); conditions: for EC50: Hepatitis C virus, Huh7.5, 72 h, read-out: HCV EC50; for anti-HCV viral activity: statement in words
Experimental: Inoculate Huh7.5 cells into 96-well plates to a density of 3×10^4 cells/cm^2, culture for 24h, infect the cells with 45 IU/cell HCV supernatant, meanwhile, add drug solutions or solvent control for treatment.

[2] = tested on: Influenza A virus (hanfang359/95); assay: Determination of anti-influenza virus activity (CPE in MDCK cells); conditions: for IC50: Influenza A virus, MDCK, 36 h; for anti-influenza virus activities compared with the lead compound cajanine: statement in words
PC12 cells [3] = assay: Neuroprotective activity assay, serum-deprived injury to PC12 cells (MTT); conditions: for viability at 10 µM: Rattus norvegicus, PC-12, 48 h, read-out: serum-deprived (surviving PC12 cells, MTT 570 nm); for protective effect on serum-deprived injury to PC12 cells: statement in words
Experimental: as §1

[4] = 10 μM test compound, 4 μM rotenone, 48 h, Control 100.0 ± 8.9, Model 73.2 ± 7.8
[5] = MT-4 cells, HIV-1 III B 100TCID50, 96 h, P24 antigen
[6] = Huh7.5 cells, 72 h, HCV RNA by RT-PCR, Reed-Muench
[7] = 10 μM test compound, 48 h, Control 100.0 ± 9.2, Model 69.3 ± 4.1

SMILES | viability at 10 µM (PC12 cells [1]; [4]) | IC50 (Coxsackie virus B6) | IC50 (HIV-1 III B virus; [5]) | anti-HIV viral activity (HIV-1 III B virus) | EC50 (HCV; [6]) | anti-HCV viral activity (HCV) | IC50 [2] | anti-influenza virus activities compared with the lead compound cajanine [2] | viability at 10 µM (PC12 cells [3]; [7]) | EC50 (HCV) | rotenone (surviving PC12 cells, MTT 570 nm) (PC12 cells [1]; [4]) | COX-B6 IC50 (Coxsackie virus B6) | HIV IC50 (HIV-1 III B virus; [5]) | HCV EC50 (HCV; [6]) | Influenza A virus (hanfang359/95) IC50 [2] | serum-deprived (surviving PC12 cells, MTT 570 nm) (PC12 cells [3]; [7]) | protective effect on rotenone injury to PC12 cells (PC12 cells [1]) | protective effect on serum-deprived injury to PC12 cells (PC12 cells [3])
COc1cc(/C=C/c2cccc(C)c2)c(C(=O)O)c(O)c1CC=C(C)C [Compound 1f, 2-hydroxy-3-isopentenyl-4-methoxy-6-[(E)-3-methylstyryl]benzoic acid] | 58 ± 4.5% | 4.65 µg/mL (≈ 13.2 µM) | 1.45 µg/mL (≈ 4.11 µM) | stronger anti-HIV, HCV viral activities | 0.53 µg/mL (≈ 1.5 µM) | stronger anti-HIV, HCV viral activities | 0.48 µg/mL (≈ 1.36 µM) | significantly stronger than the lead compound cajanine | 31.7 ± 10.3% |  |  |  |  |  |  |  |  | 
COc1cc(/C=C/c2ccc(C)cc2)c(C(=O)O)c(O)c1CC=C(C)C [Compound 1g, 2-hydroxy-3-isopentenyl-4-methoxy-6-[(E)-4-methylstyryl]benzoic acid] | 77.7 ± 12.9% | 4.25 µg/mL (≈ 12.1 µM) | 0.68 µg/mL (≈ 1.93 µM) |  | 1.43 µg/mL (≈ 4.06 µM) |  | > 0.82 µg/mL |  | 59.8 ± 11.4% |  |  |  |  |  |  |  |  | 
CC/C=C/c1cc(OC)c(CC=C(C)C)c(O)c1C(=O)O [Compound 1h, 2-hydroxy-3-isopentenyl-4-methoxy-6-[(E)-buten-1-yl]benzoic acid] | 70 ± 7.1% | 15.3 µg/mL (≈ 52.7 µM) | 2.39 µg/mL (≈ 8.23 µM) |  | 2.6 µg/mL (≈ 8.95 µM) |  | 1.92 µg/mL (≈ 6.61 µM) |  | 43.8 ± 8.8% |  |  |  |  |  |  |  |  | 
COc1cc(/C=C(\C)c2ccccc2)c(C(=O)O)c(O)c1CC=C(C)C [Compound 1i, 2-hydroxy-3-isopentenyl-4-methoxy-6-[(E)-2-phenylpropen-1-yl]benzoic acid] | 55.1 ± 4.8% | 6.25 µg/mL (≈ 17.7 µM) | 1.31 µg/mL (≈ 3.72 µM) | stronger anti-HIV, HCV viral activities | 0.59 µg/mL (≈ 1.67 µM) | stronger anti-HIV, HCV viral activities | > 0.82 µg/mL |  | 28.3 ± 7.6% |  |  |  |  |  |  |  |  | 
COc1cc(/C=C/c2cccs2)c(C(=O)O)c(O)c1CC=C(C)C [Compound 1j, 2-hydroxy-3-isopentenyl-4-methoxy-6-[(E)-2-(thien-2-yl)ethenyl]benzoic acid] | 59.8 ± 7.7% | 2.13 µg/mL (≈ 6.18 µM) | 1.02 µg/mL (≈ 2.96 µM) | stronger anti-HIV, HCV viral activities | 0.77 µg/mL (≈ 2.24 µM) | stronger anti-HIV, HCV viral activities | > 0.27 µg/mL |  | 27.7 ± 6.3% |  |  |  |  |  |  |  |  | 
COc1cc(/C=C/Cc2ccccc2)c(C(=O)O)c(O)c1CC=C(C)C [Compound 1k, 2-hydroxy-3-isopentenyl-4-methoxy-6-[(E)-3′-phenyl-propen-1′-yl]benzoic acid] | 60.4 ± 3.2% | > 2.06 µg/mL | 2.4 µg/mL (≈ 6.81 µM) |  | 1.03 µg/mL (≈ 2.92 µM) |  | 2.05 µg/mL (≈ 5.82 µM) | significantly stronger than the lead compound cajanine | 19.2 ± 0.5% |  |  |  |  |  |  |  |  | 
COc1cc(/C=C/CCc2ccccc2)c(C(=O)O)c(O)c1CC=C(C)C [Compound 1l, 2-hydroxy-3-isopentenyl-4-methoxy-6-[(E)-4′-phenylbuten-1′-yl]benzoic acid] | 58.4 ± 1.4% | > 2.06 µg/mL | 1.64 µg/mL (≈ 4.48 µM) | stronger anti-HIV, HCV viral activities | 0.65 µg/mL (≈ 1.77 µM) | stronger anti-HIV, HCV viral activities | 0.36 µg/mL (≈ 0.982 µM) | significantly stronger than the lead compound cajanine | 27.2 ± 7.2% |  |  |  |  |  |  |  |  | 
COc1cc(/C=C/C=C/c2ccccc2)c(C(=O)O)c(O)c1CC=C(C)C [Compound 1m, 2-hydroxy-3-isopentenyl-4-methoxy-6-[(1′E,3′E)-phenylbutadien-1′,3′-yl]benzoic acid] | 74.4 ± 4.4% | > 2.06 µg/mL | 1.07 µg/mL (≈ 2.94 µM) |  |  |  | 6.17 µg/mL (≈ 16.9 µM) |  | 21 ± 2.2% | 6.17 µg/mL (≈ 16.9 µM) |  |  |  |  |  |  |  | 
COc1cc(C=C2CCC(C)CC2)c(C(=O)O)c(O)c1CC=C(C)C (stereo not shown) [Compound 1n, 2-hydroxy-3-isopentenyl-4-methoxy-6-(4′-methyl-cyclohexylenemethyl)benzoic acid] |  |  |  |  |  |  |  |  |  |  | 62.9 ± 2.7 | >0.69 µg/mL | 0.99 µg/mL | 2.61 µg/mL | >6.17 µg/mL | 17.3 ± 2.4 |  | 
COc1cc(/C=C/c2ccccc2)c(C(=O)O)c(O)c1C/C=C(\C)CCC=C(C)C [Compound 1o] | 61 ± 2.8% | 1.36 µg/mL (≈ 3.35 µM) | 1.76 µg/mL (≈ 4.33 µM) |  | 1.47 µg/mL (≈ 3.62 µM) |  | > 2.47 µg/mL |  | 28.1 ± 11.9% |  |  |  |  |  |  |  |  | 
COc1cc(/C=C/C2CCCCC2)c(C(=O)O)c(O)c1CC=C(C)C [Compound 1p, 2-hydroxy-3-isopentenyl-4-methoxy-6-[(E)-2-cyclohexyl-vinyl]benzoic acid] | 82 ± 2.3% | > 2.06 µg/mL | 1.06 µg/mL (≈ 3.08 µM) |  |  |  | 8.62 µg/mL (≈ 25 µM) |  | 81.2 ± 3.2% | 8.62 µg/mL (≈ 25 µM) |  |  |  |  |  |  | the strongest activities | the strongest activities
COc1cc(/C=C/c2ccc(O)cc2)c(C(=O)O)c(O)c1CC=C(C)C [Compound 1q] | 78.9 ± 5.3% | 0.86 µg/mL (≈ 2.43 µM) | 1.86 µg/mL (≈ 5.25 µM) |  | 2.3 µg/mL (≈ 6.49 µM) |  | 2.35 µg/mL (≈ 6.63 µM) | significantly stronger than the lead compound cajanine | 79.6 ± 2.8% |  |  |  |  |  |  |  |  | 
COc1cc(/C=C/c2ccncc2)c(C(=O)O)c(O)c1CC=C(C)C [Compound 1r, 2-hydroxy-3-isopentenyl-4-methoxy-6-[(E)-2-(pyridin-4-yl)ethenyl]benzoic acid] | 86.3 ± 5.4% | 6.35 µg/mL (≈ 18.7 µM) | 6.53 µg/mL (≈ 19.2 µM) |  | 6.79 µg/mL (≈ 20 µM) |  | 6.36 µg/mL (≈ 18.7 µM) |  | 84.3 ± 6.3% |  |  |  |  |  |  |  | the strongest activities | the strongest activities
COc1cc(/C=C(\C(=O)O)c2ccccc2)c(C(=O)O)c(O)c1CC=C(C)C [Compound 1s] | 88.7 ± 6.1% | 0.85 µg/mL (≈ 2.22 µM) | 0.75 µg/mL (≈ 1.96 µM) | stronger anti-HIV, HCV viral activities | 0.84 µg/mL (≈ 2.2 µM) | stronger anti-HIV, HCV viral activities | 0.54 µg/mL (≈ 1.41 µM) |  | 89.8 ± 3.2% |  |  |  |  |  |  |  |  | 
COc1cc(/C=C/c2ccccn2)c(C(=O)O)c(O)c1CC=C(C)C [Compound 1t, 2-hydroxy-3-isopentenyl-4-methoxy-6-[(E)-2-(pyrid-2-yl)ethenyl]benzoic acid] | 84.6 ± 1.2% | 0.61 µg/mL (≈ 1.8 µM) | 1.07 µg/mL (≈ 3.15 µM) |  | 1.58 µg/mL (≈ 4.66 µM) |  | 0.34 µg/mL (≈ 1 µM) | significantly stronger than the lead compound cajanine | 85.1 ± 2.1% |  |  |  |  |  |  |  |  | 
